The text below walks through data of patent US20050137255A1, “Crystalline escitalopram hydrobromide and methods for preparing the same” (H. Lundbeck A/S, priority 2002, published 2005).

Holding throughout (assay type): physicochemical
Data set [1] in a line: Stability (stated property).
A short description of data set [2]: Exposure of crystalline material to air (hygroscopicity). The conditions noted are these: sample exposed to air.
Data set [3] can be described thus: Thermogravimetric analysis (TGA) of Form I. The conditions noted are these: heated 10°/min. As for the experimental part: The sample (1-5 mg) was heated 10°/min. on a TA Instruments TGA 2950 (available from TA Instruments of New Castle, Del.). No weight loss (<0.1%) was observed up to 150° C. Decomposition began at approximately 240° C.
The nature of data set [4]: Dynamic vapor sorption (DVS) of Form I.

Each structure is given as a SMILES string. Entries after “also recorded” stand apart in the source; their conditions may differ. Counter-ions that a name gives are not always drawn.

For the compound `CN(C)CCC[C@@]1(c2ccc(F)cc2)OCc2cc(C#N)ccc21` [Form I, (S)-1-[3-(dimethylamino)propyl]-1-(4-fluorophenyl)-1,3-dihydro-5-isobenzofuran carbonitrile hydrobromide], the stability entry in data set [1] is recorded as “stable”. The hygroscopicity result is given as “non-hygroscopic” in data set [2]; “very hygroscopic” in data set [4] (after water uptake at 80% relative humidity); “not hygroscopic; also recorded: non-hygroscopic” in data set [4] (relative humidity less than (about) 70%, hydrobromide). In addition, in data set [3], the decomposition began result was “approximately 240 °C”. This compound also registered a weight loss in data set [3] (up to 150° C.) below 0.1%. For the same compound, the water absorbed entry is given as “about 3.6 mol-equivalent of water” in data set [4] (at 80% relative humidity, corresponds to 14%); ~9 mol-equivalent of water in data set [4] (at 95% relative humidity); 14% in data set [4] (first run, at 80% relative humidity); “no water was absorbed” in data set [4] (first run, until the relative humidity exceeded 70%).
